Assay results reported in EP4803080A1, “METHOD FOR TREATING LEUKEMIA” (Shenzhen TargetRx Co., Ltd., priority 2023, dated 2025).

Experiments:
[1] = test system: K562-luc human leukemia cells; assay: Pharmacodynamic study in animal model inoculated via the carotid artery with K562-luc cells (brain metastasis model); details: 50 mg/kg p.o. qd
Protocol: K562-luc tumor cells were cultured in IMDM medium containing 10% fetal bovine serum and 1500 ng/mL puromycin in an incubator at 37°C with 5% CO2. The medium was replaced every 2 to 3 days. The cells were subcultured when the confluence reaches 80% - 90%. Tumor cells in the logarithmic growth phase were used for in vivo tumor inoculation.
Test animals: NCG mice, 6-8 weeks old, female, all handled according to SOP. The animals were housed in an SPF facility accredited by AAALAC (Association for Assessment and Accreditation of Laboratory Animal Care), in a constant-temperature and constant-humidity laminar flow clean room, using individually ventilated cages (IVC). […]
The mouse was placed supine on a neck surgery board with the upper incisors hooked and both forelimbs abducted and fixed. […] Tumor growth was monitored once weekly using an in vivo imaging system. […]
For routine monitoring, not only tumor growth but also behavioral changes of the animals were observed, including animal movement, food and water consumption (by cage-side observation), body weight changes, whether the eyes/hair were glossy, and any other abnormal effects. Any deaths and/or clinical signs of abnormalities were recorded. […]
Statistical analysis: Statistical analysis between groups was performed using SPSS 16.0 software. Mean and standard error were calculated for all measured parameters according to the experimental design. […]

Ba/F3 BCR-ABL1 Q252H = assay: Cell growth inhibitory activity test (CellTiter-Glo); format: cell-based; details: Mus musculus, BaF3, 72 hours
Text: (§1) The inhibitory effects of the compounds of the examples on the activity of Ba/F3 parental cells, Ba/F3 Bcr-Abl wild-type and mutant cells were detected.
(§2) This test used the Celltiter-Glo (CTG) kit (a homogeneous method for cell viability detection) provided by Promega to determine the cell viability of cultured cells by quantifying ATP. Ba/F3 parental cells were purchased from RIKEN BRC, catalog number RCB0805; other cells containing BCR-ABL1 wild-type and mutants were monoclonal engineered cell lines obtained by transfecting Ba/F3 parental cells with lentiviral plasmids containing WT or corresponding mutations of BCR-ABL1.
(§3) The steps for cell viability detection are as follows: • a) Collect cells in the logarithmic growth phase, prepare a cell suspension and count the cells to calculate the cell concentration. • b) After diluting the cell suspension to the desired concentration, add it to the inner wells of the 96-well plate, and add PBS to the edge wells. Wells containing only culture medium without cells serve as blank controls. • c) In addition to the cell plate used for compound analysis, prepare another 96-well plate as the T0 plate, adding 3-6 blank wells and 3-6 cell wells. Perform CTG assay the next day to measure cell viability, which serves as the T0 viability value for the cells. • d) Place the cell plate in a 37°C, 5% CO2 incubator and culture overnight. • e) The next day, add gradient-diluted compounds at various concentrations, and place the cell plate in a 37°C, 5% CO2 incubator for 72 hours.
(§4) The following nonlinear fitting formula was used to obtain the IC50 (half maximal inhibitory concentration) of the compounds: Y = Bottom + (Top−Bottom)/(1+10(LogIC50−X)∗HillSlope) [formula] • Y: Inhibition rate (%inhibition) • X: Logarithmic value of compound concentration • Top: Maximum response • Bottom: Baseline response • HillSlope: Slope of the curve

Ba/F3 BCR-ABL1 Y253H = assay: as above; format: cell-based; details: Mus musculus, BaF3, 72 hours
Text: as §1, §2, §3, §4

Ba/F3 BCR-ABL1 F317L = assay: as above; format: cell-based; details: Mus musculus, BaF3, 72 hours
Text: as §1, §2, §3, §4

Ba/F3 BCR-ABL1 I502L = assay: as above; format: cell-based; details: Mus musculus, BaF3, 72 hours
Text: as §1, §2, §3, §4

Ba/F3 BCR-ABL1 P223S = assay: as above; format: cell-based; details: Mus musculus, BaF3, 72 hours
Text: as §1, §2, §3, §4

Ba/F3 BCR-ABL1 E459K = assay: as above; format: cell-based; details: Mus musculus, BaF3, 72 hours
Text: as §1, §2, §3, §4

Ba/F3 BCR-ABL1 E255K = assay: as above; format: cell-based; details: Mus musculus, BaF3, 72 hours
Text: as §1, §2, §3, §4

Ba/F3 BCR-ABL1 WT = assay: as above; format: cell-based; details: Mus musculus, BaF3, 72 hours
Text: as §1, §2, §3, §4

Ba/F3 BCR-ABL1 G250E = assay: as above; format: cell-based; details: Mus musculus, BaF3, 72 hours
Text: as §1, §2, §3, §4

Ba/F3 BCR-ABL1 M244V = assay: as above; format: cell-based; details: Mus musculus, BaF3, 72 hours
Text: as §1, §2, §3, §4

Ba/F3 BCR-ABL1 E355G = assay: as above; format: cell-based; details: Mus musculus, BaF3, 72 hours
Text: as §1, §2, §3, §4

Ba/F3 BCR-ABL1 E255V = assay: as above; format: cell-based; details: Mus musculus, BaF3, 72 hours
Text: as §1, §2, §3, §4

SMILES: O=C(Nc1ccc(OC(F)(F)Cl)cc1)c1cnc(N2CC[C@@H](F)C2)c(-c2cnccn2)c1 [Compound A, (R)-N-(4-(chlorodifluoromethoxy)phenyl)-6-(3-fluoropyrrolidin-1-yl)-5-(pyrazin-2-yl)nicotinamide]
- BLI signal intensity of brain tumors (fluorescent signal) ([1]; day 28 after dosing, versus control group, Fig. 8): significantly inhibited
- body weight loss ([1]; during the treatment period): did not show significant body weight loss
- IC50 (Ba/F3 BCR-ABL1 Q252H): 2.38 ± 0.43 nM
- IC50 (Ba/F3 BCR-ABL1 Y253H): 5.6 ± 0.53 nM
- IC50 (Ba/F3 BCR-ABL1 F317L): 17.2 ± 0.99 nM
- IC50 (Ba/F3 BCR-ABL1 I502L): 94.8 ± 1.06 nM
- IC50 (Ba/F3 BCR-ABL1 P223S): 43.7 ± 4.88 nM
- IC50 (Ba/F3 BCR-ABL1 E459K): 3.8 ± 0.22 nM
- IC50 (Ba/F3 BCR-ABL1 E255K): 1.01 ± 0.08 nM
- IC50 (Ba/F3 BCR-ABL1 WT): 4.11 ± 0.05 nM
- IC50 (Ba/F3 BCR-ABL1 G250E): 2.49 ± 0.18 nM
- IC50 (Ba/F3 BCR-ABL1 M244V): 26.8 ± 2.26 nM
- IC50 (Ba/F3 BCR-ABL1 E355G): 52.6 ± 0.42 nM
- IC50 (Ba/F3 BCR-ABL1 E255V): 2.73 ± 0.02 nM
